From patent US20240343706A1, “PIPERIDINE-2,6-DIONE DERIVATIVES WHICH BIND TO CEREBLON, AND METHODS OF USE THEREOF” (Captor Therapeutics S.A., priority 2019, published 2024)

Tests used:
[1] = tested on: IKZF1; assay: IKZF1 degradation assay, H929 cell line (western blot densitometry); format: cell-based; conditions: H929 cells
Description: (§1) After primary and secondary Ab staining, the membranes were washed and signals developed. The densitometry analysis was implemented to obtain the numeric values used later in the protein level evaluation process.

[2] = tested on: IKZF3; assay: IKZF3 degradation assay, H929 cell line (western blot densitometry); format: cell-based; conditions: H929 cells
[3] = molecular target: BRD4-compound-CRBN/DDB1 ternary complex (Homo sapiens, UniProt O60885+Q96SW2); assay: BRD4-compound-CRBN/DDB1 ternary complex formation, AlphaLISA homogenous assay; format: biochemical; conditions: for EC50: 100 nM His-CRBN/DDB1, 20 nM BRD4, N = 3, read-out: TF50 (compound concentration which mediate the half of maximal response observed for Ternary Complex); for Normalized AUC to dBET1: area under curve 1.63-2500 nM
Experimental: Biotinylated BRD4 and His-CRBN/DDB1 complex preparations were centrifugated to remove large aggregates (18000 rcf, 4° C., 5 min). Supernatant was collected and protein concentration was determined spectrophotometrically. The AlphaLISA bead-Protein mixtures were prepared: CRBN-acceptor bead (40 μg/ml Anti-6×His beads, 200 nM His-CRBN/DDB1 in PBS pH 7.4 supplemented with 0.1% Tween-20) and BRD4-donor bead (40 μg/ml Streptavidin beads, 40 nM BRD4 in PBS pH 7.4 supplemented with 0.1% Tween-20 and 2 mM DTT). Bead mixes were incubated in dark for 30 minutes at room temperature.
CRBN-acceptor bead mix and BRD4-donor bead mix were combined and dispensed into plate with compounds and DMSO only (10 μl of master mix per well). Final sample composition: 20 μg/ml Anti-6×His beads, 20 μg/ml Stretavidin beads, 100 nM His-CRBN/DDB1, 20 nM BRD4, 2% DMSO, 0.1% Tween-20, 1 mM DTT in PBS pH 7.4, +/− compound. Plate was sealed and covered to protect against light. Sample was mixed using Vibroturbulator. Subsequently, solutions in the plate was centrifugated and incubated in the dark for 30 minutes at 25° C. The plate seal was removed and sample luminescence was determined using Perkin Elmer Enspire plate reader. Readouts were assigned to certain compound concentration. Solutions without compound were utilized to determine background response (an average value) which subsequently was subtracted from raw data collected for compound mixtures.

[4] = molecular target: BRD4 (Homo sapiens, UniProt O60885); assay: BRD4 degradation assay, H929 cell line (Simple Western); conditions: H929 cells, 6 h
[5] = molecular target: CRBN-DDB1 protein complex (Homo sapiens, UniProt Q96SW2); assay: Fluorescence polarization (FP) assay, displacement of Cy5-labelled thalidomide; conditions: 25 nM CRBN-DDB1, 5 nM Cy5-labelled thalidomide, read-out: CRBN binding Ki
Experimental: CRBN-DDB1 protein complex was mixed with Cy5-labelled thalidomide and a compound to be tested (the “test compound”). […] The test solution was added to a 384-well assay plate.
The plate was spun-down (1 min, 1000 rpm, 22° C.) and then shaken using a VibroTurbulator for 10 min at room temperature (20-25° C.), with the frequency set to level 3. The assay plate with protein and the tracer was incubated for 60 min at room temperature (20-25° C.) prior to read-out with a plate reader.
The FP experiment was carried out with various concentrations of the test compounds in order to measure Ki values.

[6] = molecular target: T1, IKZF1-compound-CRBN/DDB1 ternary complex (Homo sapiens, UniProt Q96SW2); assay: IKZF1-compound-CRBN/DDB1 ternary complex formation, AlphaLISA homogenous assay; format: biochemical; conditions: AlphaLISA, 0.1, 1 and 10 μM, normalized to Lenalidomide response
T1 construct: Strep-tagged Ikaros (IKZF1 ZF2)
Experimental: Strep-tagged Ikaros (IKZF1 ZF2) and His-CRBN/DDB1 complex preparations were centrifugated to remove large aggregates (18000 rcf, 4° C., 5 min). Supernatant was collected and protein concentration was determined spectrophotometrically. The AlphaLISA bead-Protein mixtures were prepared: CRBN-acceptor bead (40 μg/ml Anti-6×His beads, 200 nM His-CRBN/DDB1 in PBS pH 7.4 supplemented with 0.1% Tween-20) Ikaros-donor bead mix (40 μg/ml Strep-Tactin beads, 800 nM IKZF1 in PBS pH 7.4 supplemented with 0.1% Tween-20 and 2 mM DTT). Bead mixes were incubated in dark for 30 minutes at room temperature. Tested compounds were dispensed into small volume AlphaPlate (Perkin Elmer) using Echo 555 liquid handler. CRBN-acceptor bead mix and Ikaros-donor bead mix were combined and dispensed into plate with compounds and DMSO only (10 μl of master mix per well). Final sample composition: 20 μg/ml Anti-6×His beads, 20 μg/ml Strep-Tactin beads, 100 nM His-CRBN/DDB1, 400 nM IKZF1, 2% DMSO, 0.1% Tween-20, 1 mM DTT in PBS pH 7.4, +/− compound. Plate was sealed and covered to protect against light. Sample was mixed using Vibroturbulator. […] The plate seal was removed and sample luminescence was determined using Perkin Elmer Enspire plate reader. Readouts were assigned to certain compound concentration. […] The average and standard deviation (SD) were calculated for each compound concentration point. […]

[7] = tested on: CK1α; assay: CK1α degradation assay, Kelly cell line (western blot densitometry); format: cell-based; conditions: Kelly cells; for % of CK1α protein reduction, based on densitometry values: 24 h
Description: as §1

[8] = tested on: SALL4; assay: SALL4 degradation assay, Kelly cell line (western blot densitometry); format: cell-based; conditions: Kelly cells; for % of SALL4 protein reduction, based on densitometry values: 24 h
Description: as §1

[9] = summary Table 10, 24 H, 20 μM (some compounds 10 and 20 μM)

SMILES | % of IKZF1 α protein reduction based on densitometry values ([1]; 0.1 μM, 6 h) | % of IKZF1 α protein reduction based on densitometry values ([1]; 1 μM, 6 h) | % of IKZF1 α protein reduction based on densitometry values ([1]; 10 μM, 6 h) | % of IKZF3 protein reduction based on densitometry values, IKZF3 Band I ([2]; 0.1 μM, 6 h) | % of IKZF3 protein reduction based on densitometry values, IKZF3 Band II ([2]; 0.1 μM, 6 h) | % of IKZF3 protein reduction based on densitometry values, IKZF3 Band I ([2]; 1 μM, 6 h) | % of IKZF3 protein reduction based on densitometry values, IKZF3 Band II ([2]; 1 μM, 6 h) | % of IKZF3 protein reduction based on densitometry values, IKZF3 Band I ([2]; 10 μM, 6 h) | % of IKZF3 protein reduction based on densitometry values, IKZF3 Band II ([2]; 10 μM, 6 h) | EC50 [3] [nM] | Normalized AUC to dBET1 [3] | BRD4 degradation (in words) [4] | Ki [5] [nM] | further results
Cc1sc2c(c1C)C(c1ccc(Cl)cc1)=N[C@@H](CC(=O)NCCCCCCCCNC(=O)CCc1nc3c(C(=O)NC4CCC(=O)NC4=O)cccc3[nH]1)c1nnc(C)n1-2 (stereo partly drawn) [Compound 64, 2-(3-((8-(2-((S)-4-(4-chlorophenyl)-2,3,9-trimethyl-6H-thieno[3,2-f][1,2,4]triazolo[4,3-a][1,4]diazepin-6-yl)acetamido)octyl)amino)-3-oxopropyl)-N-(2,6-dioxopiperidin-3-yl)-1H-benzo[d]imidazole-7-carboxamide] | ≤25% (≤25% for 0-25% of IKZF1 protein reduction) | ≤25% (≤25% for 0-25% of IKZF1 protein reduction) | ≤25% (≤25% for 0-25% of IKZF1 protein reduction) | ≤25% (≤25% for 0-25% of IKZF3 protein reduction) | ≤25% (≤25% for 0-25% of IKZF3 protein reduction) | >25% (>25% for 26-74% of IKZF3 protein reduction) | ≤25% (≤25% for 0-25% of IKZF3 protein reduction) | ≤25% (≤25% for 0-25% of IKZF3 protein reduction) | ≤25% (≤25% for 0-25% of IKZF3 protein reduction) | 70.5 | 1.45 | can degrade BRD4 | 1000 to 10000 | 
Cc1sc2c(c1C)C(c1ccc(Cl)cc1)=N[C@@H](CC(=O)NCCCCCCCCNC(=O)Cn1c(C)nc3c(C(=O)NC4CCC(=O)NC4=O)cccc31)c1nnc(C)n1-2 (stereo partly drawn) [Compound 65, 1-(2-((8-(2-((S)-4-(4-chlorophenyl)-2,3,9-trimethyl-6H-thieno[3,2-f][1,2,4]triazolo[4,3-a][1,4]diazepin-6-yl)acetamido)octyl)amino)-2-oxoethyl)-N-(2,6-dioxopiperidin-3-yl)-2-methyl-1H-benzo[d]imidazole-4-carboxamide] |  |  |  |  |  |  |  |  |  | 38.8 | 1.22 |  | < 1000 | IKZF1-compound-CRBN/DDB1 complex formation (in words) [6]: do not promote IKZF1-compound-CRBN/DDB1 complex formation
Cc1nc2c(C(=O)NC3CCC(=O)NC3=O)cc(OCC(=O)NCCCCCCCCNC(=O)C[C@@H]3N=C(c4ccc(Cl)cc4)c4c(sc(C)c4C)-n4c(C)nnc43)cc2[nH]1 (stereo partly drawn) [Compound 66, 5-(2-((8-(2-((S)-4-(4-chlorophenyl)-2,3,9-trimethyl-6H-thieno[3,2-f][1,2,4]triazolo[4,3-a][1,4]diazepin-6-yl)acetamido)octyl)amino)-2-oxoethoxy)-N-(2,6-dioxopiperidin-3-yl)-2-methyl-1H-benzo[d]imidazole-7-carboxamide] | ≤25% (≤25% for 0-25% of IKZF1 protein reduction) | ≤25% (≤25% for 0-25% of IKZF1 protein reduction) | ≤25% (≤25% for 0-25% of IKZF1 protein reduction) | ≤25% (≤25% for 0-25% of IKZF3 protein reduction) | ≤25% (≤25% for 0-25% of IKZF3 protein reduction) | ≤25% (≤25% for 0-25% of IKZF3 protein reduction) | ≤25% (≤25% for 0-25% of IKZF3 protein reduction) | ≤25% (≤25% for 0-25% of IKZF3 protein reduction) | ≤25% (≤25% for 0-25% of IKZF3 protein reduction) | 42.1 | 1.53 | can degrade BRD4 | < 1000 | 
Cc1nc2c(C(=O)NC3CCC(=O)NC3=O)cncc2[nH]1 (stereo not drawn) [Compound 35, N-(2,6-dioxopiperidin-3-yl)-2-methyl-3H-imidazo[4,5-c]pyridine-7-carboxamide] |  |  |  |  |  |  |  |  |  |  |  |  | 1000 to 10000 | % of CK1α protein reduction, based on densitometry values ([7]; 10 μM): ≤25% (≤25% for 0-25% of CK1a protein reduction); % of CK1α protein reduction, based on densitometry values ([7]; 20 μM): ≤25% (≤25% for 0-25% of CK1a protein reduction); % of protein reduction based on densitometry values, CK1α (24 H) [7, 9]: ≤25% (≤25% for 0-25% of CK1a protein reduction); % of SALL4 protein reduction, based on densitometry values ([8]; 10 μM): ≤25% (≤25% for 0-25% of SALL4 protein reduction); % of SALL4 protein reduction, based on densitometry values ([8]; 20 μM): ≤25% (≤25% for 0-25% of SALL4 protein reduction); % of protein reduction based on densitometry values, SALL4 (24 H) [8, 9]: ≤25% (≤25% for 0-25% of SALL4 protein reduction); % of IKZF1 α protein reduction based on densitometry values ([1]; 10 μM, 24 h): ≤25% (≤25% for 0-25% of IKZF1 protein reduction); % of IKZF1 α protein reduction based on densitometry values ([1]; 20 μM, 24 h): ≤25% (≤25% for 0-25% of IKZF1 protein reduction); % of protein reduction based on densitometry values, IKZF 1 (24 H) [1, 9]: ≤25% (≤25% for 0-25% of IKZF1 protein reduction); % of IKZF3 protein reduction based on densitometry values, IKZF3 Band I ([2]; 10 μM, 24 h): ≤25% (≤25% for 0-25% of IKZF3 protein reduction); % of IKZF3 protein reduction based on densitometry values, IKZF3 Band II ([2]; 10 μM, 24 h): ≤25% (≤25% for 0-25% of IKZF3 protein reduction); % of IKZF3 protein reduction based on densitometry values, IKZF3 Band I ([2]; 20 μM, 24 h): ≤25% (≤25% for 0-25% of IKZF3 protein reduction); % of IKZF3 protein reduction based on densitometry values, IKZF3 Band II ([2]; 20 μM, 24 h): ≤25% (≤25% for 0-25% of IKZF3 protein reduction); % of protein reduction based on densitometry values, IKZF3 (24 H) ([2]; summary Table 10, 24 H, 10 and 20 μM): ≤25% (≤25% for 0-25% of IKZF3 protein reduction)
